Reference: US7064139B2, “Method for treating retroviral infections” (Uniroyal Chemical Company, Inc., priority 2001, dated 2006)
≈ marks a conversion by molar mass, not a printed value. Like-named read-outs stand apart in the source and are kept apart here.

Key:
[1] = tested on: HIV-1 (IIIB); assay: microbe, parasite or virus in culture; format: cell-based; settings: for EC50: Human immunodeficiency virus 1, IIIB, CCRF-CEM, read-out: EC50 (ug/ml) HIV-1; for HIV-1 % Protection: protection of CEM cells against virus-induced cytopathicity at the concentration in the previous column
Source text: (§1) The cell type used to determine activity of the compounds of the invention herein, i.e., the test compounds, against HIV was human T-lymphoblast (CEM) cells obtained from the American Tissue Cell Culture Collection (Rockville, Md.). HIV-1 (IIIB) was originally obtained from the culture of persistently HIV-1 infected H9 cells and was provided by R. C. Gallo and M. Popovic (National Cancer Institute, National Institutes of Health, Bethesda, Md.). HIV-2 (ROD) was originally obtained from L. M. Montagnier (Pasteur Institute, Paris, France).
(§2) To determine the antiviral activity of the test compounds, CEM cells were suspended at a cell density of approximately 300,000 cells per ml of culture medium and infected with approximately 100 CCID50 (100 CCID50 being the 50% cell culture infective dose) of HIV-1 (IIIB) or HIV-2 (ROD)). Then 100 μl of the infected cell suspensions was added to 200 μl micro titer plate wells containing 100 μl of appropriate serial (5-fold) dilutions of the test compounds. The inhibitory effect of the test compounds on HIV-1 or HIV-2 syncytium formation in CEM cells was examined microscopically on day four post infection.
(§3) In these cases, the percent protection of the cells against virus-induced cytopathicity by the test compounds at the indicated compound concentration in the previous column is given.

[2] = tested on: HIV-2 (ROD); assay: Inhibition of HIV-2 syncytium formation in CEM cells; format: cell-based; settings: for EC50: Human immunodeficiency virus 2, CCRF-CEM, read-out: EC50 (ug/ml) HIV-2; for HIV-2 % Protection: protection of CEM cells against virus-induced cytopathicity at the concentration in the previous column
Source text: as §1, §2, §3

[3] = tested on: Davis strain CMV; assay: Reduction of CMV-induced cytopathicity in HEL cells; format: cell-based, human cytomegalovirus (HCMV); settings: for EC50: read-out: Antiviral EC50 (ug/ml) Davis strain CMV; for Antiviral % Inhibition Davis strain CMV: estimate of percent protection at the concentration in the previous column
Procedure: Confluent HEL cells grown in […] microtiter plates were inoculated with CMV at an input of 100 PFU (plaque forming units) per well. After a one to two hour incubation period, residual virus was removed and the infected cells were further incubated with MEM (Minimal Essential Medium) (supplemented with 2% inactivated Fetal Calf Serum (FCS), […], and 0.3% sodium bicarbonate) containing varying concentrations of the test compounds. Antiviral activity was expressed as EC50 (50% effective concentration), or test compound concentration required to reduce virus-induced cytopathicity after seven days by 50% compared to the untreated control.
In some cases, the compounds had considerable cytotoxicity against HEL cells, which made determination of the EC50 difficult. In these cases, an estimate of the percent protection at the compound concentration indicated in the previous columns is given.

[4] = CEM cells, syncytium formation, day four post infection
[5] = HEL cells, virus-induced cytopathicity after seven days
[6] = Human betaherpesvirus 5, 168 h, HEL cells, virus-induced cytopathicity after seven days

## Cc1ccc(C)c(C(C)Sc2cc(C)c3ccccc3n2)c1 (stereo not drawn) [Compound 162, 2-[[1-(2,5dimethylphenyl)ethyl]thio]-4-methyl-Quinoline]
[1]
  EC50: > 0.8 µg/mL
  HIV-1 % Protection: 0.0%
[2]
  EC50: > 0.16 µg/mL
  HIV-2 % Protection: 0.0%
[3]; Human betaherpesvirus 5, HEL, 168 h
  EC50: 1.6 µg/mL (≈ 5.2 µM)

## Cc1ccc[n+]([O-])c1S(=O)(=O)C(C)c1ccccc1Cl (stereo not drawn) [Compound 120]
[1]; [4]
  EC50 (ug/ml) HIV-1: 3.30 µg/mL (≈ 10.6 µM)
[2]; [4]
  EC50 (ug/ml) HIV-2: >20.00 µg/mL
[2]
  HIV-2 % Protection: 0.0%
[3]; [5]
  Antiviral EC50 (ug/ml) Davis strain CMV: 12.5 µg/mL

## Cc1ccc[n+]([O-])c1S(=O)(=O)Cc1ccccc1Cl [Compound 117]
[1]; [4]
  EC50 (ug/ml) HIV-1: 3.40 µg/mL (≈ 11.4 µM)
[2]; [4]
  EC50 (ug/ml) HIV-2: >4.0 µg/mL
[2]
  HIV-2 % Protection: 0.0%
[3]; [5]
  Antiviral EC50 (ug/ml) Davis strain CMV: 12.0 µg/mL

## Cc1cc(C)c(C[S+]([O-])c2cccc[n+]2[O-])c(C)c1 (stereo not drawn) [Compound 88, 2-(2,4,6-trimethylbenzylsulfinyl)-pyridine-N-oxide]
[1]; [4]
  EC50: 1.5 µg/mL (≈ 5.45 µM)
[2]; [4]
  EC50: 1.5 µg/mL (≈ 5.45 µM)
[3]; [6]
  EC50: 25 µg/mL (≈ 90.8 µM)

## O=S(=O)(Cc1ccc(Cl)c(Cl)c1)c1cccc[n+]1[O-] [Compound 37, 2-(3,4-dichlorobenzylsulfonyl)-pyridine-N-oxide]
[1]; [4]
  EC50: 1 µg/mL (≈ 3.14 µM)
[2]; [4]
  EC50: 1.3 µg/mL (≈ 4.09 µM)
[3]; HEL cells
  Antiviral % Inhibition Davis strain CMV: 30.0%
[3]; [6]
  EC50: > 5 µg/mL

## CC(C)c1cc(CS(=O)(=O)c2cccc[n+]2[O-])c(C(C)C)cc1Br [Compound 63]
[1]; [4]
  EC50 (ug/ml) HIV-1: 2.30 µg/mL (≈ 5.58 µM)
[2]; [4]
  EC50 (ug/ml) HIV-2: 2.5 µg/mL (≈ 6.06 µM)
[3]; [5]
  Antiviral EC50 (ug/ml) Davis strain CMV: 3.7 µg/mL

## Cc1ccc(C)c(C(C)[S+]([O-])c2ccccn2)c1 (stereo not drawn) [Compound 163]
[1]; [4]
  EC50 (ug/ml) HIV-1: 3.25 µg/mL (≈ 12.5 µM)
[2]; [4]
  EC50 (ug/ml) HIV-2: >100 µg/mL
[2]
  HIV-2 % Protection: 0.0%
[3]; HEL cells
  Antiviral % Inhibition Davis strain CMV: 0.0%
[3]; [5]
  Antiviral EC50 (ug/ml) Davis strain CMV: >50 µg/mL

## O=[N+]([O-])c1ccc[n+]([O-])c1SCc1ccccc1 [Compound 146]
[1]; [4]
  EC50 (ug/ml) HIV-1: 2.30 µg/mL (≈ 8.77 µM)
[2]; [4]
  EC50 (ug/ml) HIV-2: ≧20 ug/ml
[2]
  HIV-2 % Protection: 37.5%
[3]; [5]
  Antiviral EC50 (ug/ml) Davis strain CMV: 40.0 µg/mL

## Cc1ccc(N)cc1C(C)S(=O)(=O)c1cccc[n+]1[O-] (stereo not drawn) [Compound 1]
[1]; [4]
  EC50 (ug/ml) HIV-1: 20.00 µg/mL (≈ 68.4 µM)
[2]; [4]
  EC50 (ug/ml) HIV-2: 41.0 µg/mL (≈ 140 µM)
[3]; HEL cells
  Antiviral % Inhibition Davis strain CMV: 0.0%
[3]; [5]
  Antiviral EC50 (ug/ml) Davis strain CMV: >50 µg/mL

## Cc1ccc(CS(=O)(=O)c2cccc[n+]2[O-])cc1[N+](=O)[O-] [Compound 67]
[1]; [4]
  EC50 (ug/ml) HIV-1: 2.30 µg/mL (≈ 7.46 µM)
[2]; [4]
  EC50 (ug/ml) HIV-2: 2.4 µg/mL (≈ 7.78 µM)
[3]; HEL cells
  Antiviral % Inhibition Davis strain CMV: 20.0%
[3]; [5]
  Antiviral EC50 (ug/ml) Davis strain CMV: >50 µg/mL

## Cc1ccc(C)c(C(C)S(=O)(=O)c2cccc(Cl)[n+]2[O-])c1 (stereo not drawn) [Compound 76]
[1]; [4]
  EC50 (ug/ml) HIV-1: 0.90 µg/mL (≈ 2.76 µM)
[2]; [4]
  EC50 (ug/ml) HIV-2: 2.4 µg/mL (≈ 7.37 µM)
[3]; [5]
  Antiviral EC50 (ug/ml) Davis strain CMV: 9.1 µg/mL

## O=[N+]([O-])c1ccc(CS(=O)(=O)c2cccc[n+]2[O-])cc1 [Compound 14]
[1]; [4]
  EC50 (ug/ml) HIV-1: >4 µg/mL
[1]
  HIV-1 % Protection: 0.0%
[2]; [4]
  EC50 (ug/ml) HIV-2: >4 µg/mL
[2]
  HIV-2 % Protection: 25.0%
[3]; [5]
  Antiviral EC50 (ug/ml) Davis strain CMV: 7.0 µg/mL

## O=S(=O)(Cc1cccc(Br)c1)c1cccc[n+]1[O-] [Compound 38]
[1]; [4]
  EC50 (ug/ml) HIV-1: 2.50 µg/mL (≈ 7.62 µM)
[2]; [4]
  EC50 (ug/ml) HIV-2: ≧4 ug/ml
[2]
  HIV-2 % Protection: 37.5%
[3]; [5]
  Antiviral EC50 (ug/ml) Davis strain CMV: 5.0 µg/mL

## COc1ccc(C)cc1CS(=O)(=O)c1cccc[n+]1[O-] [Compound 30]
[1]; [4]
  EC50 (ug/ml) HIV-1: 1.60 µg/mL (≈ 5.45 µM)
[2]; [4]
  EC50 (ug/ml) HIV-2: 14.0 µg/mL (≈ 47.7 µM)
[3]; [5]
  Antiviral EC50 (ug/ml) Davis strain CMV: 37.0 µg/mL

## CN1CCCCC1CSc1cccc[n+]1[O-] (racemic) [Compound 156]
[1]; [4]
  EC50 (ug/ml) HIV-1: 16.00 µg/mL (≈ 67.1 µM)
[2]; [4]
  EC50 (ug/ml) HIV-2: >100 µg/mL
[2]
  HIV-2 % Protection: 0.0%
[3]; HEL cells
  Antiviral % Inhibition Davis strain CMV: 0.0%
[3]; [5]
  Antiviral EC50 (ug/ml) Davis strain CMV: >50 µg/mL
